Measured values as given in ChEMBL document CHEMBL1201862, “PubChem BioAssay data set” (2004).
Each block holds one compound with its values, some of them ahead of it. Activity calls are given as the source filed them.

Assays:
[1] = molecular target: G-protein coupled receptor 55 (Homo sapiens, UniProt Q9Y2T6); assay: GPR55 agonists via beta-arrestin recruitment, primary screen, imaging, U2OS cells, beta-arrestin-GFP redistribution (AID 1961); assay type: functional
[2] = molecular target: T1, Histone-lysine N-methyltransferase NSD2 (Homo sapiens, UniProt O96028); assay type: biochemical
T1 sequence (O96028 whole entry): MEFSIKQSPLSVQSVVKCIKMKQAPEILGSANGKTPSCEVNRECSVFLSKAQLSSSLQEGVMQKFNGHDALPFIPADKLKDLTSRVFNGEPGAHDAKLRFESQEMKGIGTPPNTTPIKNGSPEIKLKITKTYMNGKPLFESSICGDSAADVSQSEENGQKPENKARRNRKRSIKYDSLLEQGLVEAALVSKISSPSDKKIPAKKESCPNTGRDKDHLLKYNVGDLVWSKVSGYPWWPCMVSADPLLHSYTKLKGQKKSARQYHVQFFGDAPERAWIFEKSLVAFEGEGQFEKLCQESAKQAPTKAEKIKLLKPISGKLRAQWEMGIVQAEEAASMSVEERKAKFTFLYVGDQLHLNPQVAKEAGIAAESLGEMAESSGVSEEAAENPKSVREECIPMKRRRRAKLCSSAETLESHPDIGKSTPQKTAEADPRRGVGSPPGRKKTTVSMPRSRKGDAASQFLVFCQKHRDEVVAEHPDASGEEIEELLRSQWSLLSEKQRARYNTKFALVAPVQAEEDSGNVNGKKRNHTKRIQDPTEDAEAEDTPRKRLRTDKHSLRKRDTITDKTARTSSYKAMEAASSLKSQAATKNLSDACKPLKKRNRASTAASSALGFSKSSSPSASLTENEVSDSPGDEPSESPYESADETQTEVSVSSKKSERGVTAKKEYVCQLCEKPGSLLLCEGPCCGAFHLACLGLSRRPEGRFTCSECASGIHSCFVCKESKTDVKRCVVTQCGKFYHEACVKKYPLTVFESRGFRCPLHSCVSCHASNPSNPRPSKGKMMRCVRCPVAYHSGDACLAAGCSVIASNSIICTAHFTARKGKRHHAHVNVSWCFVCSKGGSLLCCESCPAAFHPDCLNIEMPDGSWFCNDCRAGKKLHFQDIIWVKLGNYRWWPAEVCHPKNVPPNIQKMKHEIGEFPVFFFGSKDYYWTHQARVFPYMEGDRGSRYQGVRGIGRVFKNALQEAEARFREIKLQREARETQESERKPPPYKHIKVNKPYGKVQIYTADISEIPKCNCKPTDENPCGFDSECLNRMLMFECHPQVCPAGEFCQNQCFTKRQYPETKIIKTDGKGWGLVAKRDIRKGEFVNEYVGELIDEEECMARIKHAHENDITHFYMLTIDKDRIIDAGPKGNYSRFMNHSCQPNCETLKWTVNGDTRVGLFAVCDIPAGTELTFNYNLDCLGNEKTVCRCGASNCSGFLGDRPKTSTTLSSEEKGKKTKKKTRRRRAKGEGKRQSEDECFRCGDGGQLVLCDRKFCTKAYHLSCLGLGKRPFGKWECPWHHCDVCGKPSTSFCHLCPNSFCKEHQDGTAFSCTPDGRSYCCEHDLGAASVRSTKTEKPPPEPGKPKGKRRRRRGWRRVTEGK

[3] = molecular target: Cytochrome P450 2C19 (Homo sapiens, UniProt P33261); assay: Cytochrome panel assay with activity outcomes. Panel member name: p450-cyp2c19 Compounds with AC50 equal or less than 10 uM are considered active; assay type: functional
[4] = molecular target: T2, Cytochrome P450 1A2 (Homo sapiens, UniProt P05177);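 note: PubChem cytochrome P450 panel assay, CYP1A2 panel member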
T2 sequence (P05177 whole entry): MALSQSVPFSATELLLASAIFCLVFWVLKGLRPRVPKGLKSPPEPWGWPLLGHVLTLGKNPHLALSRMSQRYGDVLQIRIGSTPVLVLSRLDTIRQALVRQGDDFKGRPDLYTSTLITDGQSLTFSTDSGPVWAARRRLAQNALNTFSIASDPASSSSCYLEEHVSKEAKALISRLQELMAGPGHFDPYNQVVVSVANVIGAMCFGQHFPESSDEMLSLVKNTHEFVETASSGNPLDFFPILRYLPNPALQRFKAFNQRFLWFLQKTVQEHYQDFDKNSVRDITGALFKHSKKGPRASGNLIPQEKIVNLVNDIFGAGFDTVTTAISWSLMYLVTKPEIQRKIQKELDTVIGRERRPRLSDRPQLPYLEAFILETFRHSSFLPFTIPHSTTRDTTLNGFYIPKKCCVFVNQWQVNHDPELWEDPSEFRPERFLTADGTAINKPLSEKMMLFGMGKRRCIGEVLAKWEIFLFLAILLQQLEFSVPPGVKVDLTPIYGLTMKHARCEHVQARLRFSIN

[5] = molecular target: T3, Cytochrome P450 2C9 (Homo sapiens, UniProt P11712)
[6] = growth suppression of PTEN-null colon cells, dose response, cell-based, HCT116 PTEN knockout (AID 1047); assay type: functional;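 note: HCT116 colon tumor cells with PTEN knocked out; cells exposed to compound for 60 hours before readout; potency for loss of cell viability measured by luminescence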
[7] = growth suppression of beta-catenin-knockout colon cells, dose response, cell-based, HCT116, human colon tumor (AID 1045); assay type: functional;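 note: HCT116 colon tumor cells with beta catenin knocked out; cells exposed to compound for 60 hours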
[8] = molecular target: Cytochrome P450 2D6 (Homo sapiens, UniProt P10635);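 note: CYP2D6 member of a cytochrome P450 panel assay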
[9] = molecular target: Cytochrome P450 3A4 (Homo sapiens, UniProt P08684);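 note: CYP3A4 tested as one member of a cytochrome P450 panel screen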
[10] = molecular target: T3, Cytochrome P450 2C9; remark: listed apart in the source
[11] = cytotoxicity in HEK-293T cells, dose response, cytotoxicity control for BCR NF-kB inhibitor project, luminescence, B-cell screen hits (AID 489021); assay type: functional, cell-based;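 note: HEK-293T cells carrying an NF-kB luciferase reporter; cells exposed to compound for about 14 hours before viability readout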
[12] = molecular target: T4, Calpain-2 catalytic subunit (Sus scrofa, UniProt P43367); assay: pig calpain II inhibitor potency, dose response, biochemical, fluorogenic peptide substrate (AID 1420); assay type: functional
T4 sequence (P43367 whole entry): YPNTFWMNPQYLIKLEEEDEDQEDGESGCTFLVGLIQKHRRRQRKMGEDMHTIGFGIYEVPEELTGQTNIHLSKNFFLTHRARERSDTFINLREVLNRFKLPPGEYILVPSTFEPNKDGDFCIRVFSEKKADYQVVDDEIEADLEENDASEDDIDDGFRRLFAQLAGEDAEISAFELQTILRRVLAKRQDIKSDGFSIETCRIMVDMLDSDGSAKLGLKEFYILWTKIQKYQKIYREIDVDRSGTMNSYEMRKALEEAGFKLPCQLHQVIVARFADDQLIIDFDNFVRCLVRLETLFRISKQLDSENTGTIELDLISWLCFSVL

[13] = system: INS1; assay: beta cell apoptosis inhibitors, cytokine rescue, dose response, luminescence, retest (AID 449756); assay type: functional, cell-based; conditions: Rattus norvegicus;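 note: cell death triggered by IL-1 beta plus TNF-alpha plus IFN-gamma mixture; protective hits raise ATP signal compared with cytokine alone wells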
[14] = intracellular Trypanosoma cruzi inhibitors in host cells – cell-based, plate reader, cherry-pick samples, set 3, dose response (AID 651818); assay type: functional;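 note: compounds incubated with infected cells for about four days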

T3 sequence (P11712 whole entry): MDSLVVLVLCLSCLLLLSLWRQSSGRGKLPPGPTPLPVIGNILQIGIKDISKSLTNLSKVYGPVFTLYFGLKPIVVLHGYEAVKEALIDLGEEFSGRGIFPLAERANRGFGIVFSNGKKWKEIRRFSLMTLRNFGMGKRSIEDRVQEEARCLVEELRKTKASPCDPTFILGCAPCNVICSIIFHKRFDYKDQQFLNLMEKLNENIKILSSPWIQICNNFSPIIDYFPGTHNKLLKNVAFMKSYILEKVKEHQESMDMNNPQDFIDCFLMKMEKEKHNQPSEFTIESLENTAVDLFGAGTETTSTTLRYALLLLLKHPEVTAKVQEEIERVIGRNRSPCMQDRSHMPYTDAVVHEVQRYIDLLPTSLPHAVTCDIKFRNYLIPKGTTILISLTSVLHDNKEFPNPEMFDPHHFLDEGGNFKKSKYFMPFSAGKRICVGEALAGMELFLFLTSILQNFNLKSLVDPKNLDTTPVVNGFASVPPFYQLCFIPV
G-protein coupled receptor 55, sequence (Q9Y2T6 whole entry): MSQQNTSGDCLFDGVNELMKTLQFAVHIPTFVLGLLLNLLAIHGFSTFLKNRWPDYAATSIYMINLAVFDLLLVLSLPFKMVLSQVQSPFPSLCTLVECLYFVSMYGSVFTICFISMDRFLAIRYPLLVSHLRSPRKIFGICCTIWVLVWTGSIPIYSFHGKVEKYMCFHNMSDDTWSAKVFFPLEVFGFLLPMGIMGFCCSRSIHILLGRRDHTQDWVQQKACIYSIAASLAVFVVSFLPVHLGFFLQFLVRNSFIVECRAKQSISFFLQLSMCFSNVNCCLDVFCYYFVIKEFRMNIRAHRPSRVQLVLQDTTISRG
Cytochrome P450 2C19, sequence (P33261 whole entry): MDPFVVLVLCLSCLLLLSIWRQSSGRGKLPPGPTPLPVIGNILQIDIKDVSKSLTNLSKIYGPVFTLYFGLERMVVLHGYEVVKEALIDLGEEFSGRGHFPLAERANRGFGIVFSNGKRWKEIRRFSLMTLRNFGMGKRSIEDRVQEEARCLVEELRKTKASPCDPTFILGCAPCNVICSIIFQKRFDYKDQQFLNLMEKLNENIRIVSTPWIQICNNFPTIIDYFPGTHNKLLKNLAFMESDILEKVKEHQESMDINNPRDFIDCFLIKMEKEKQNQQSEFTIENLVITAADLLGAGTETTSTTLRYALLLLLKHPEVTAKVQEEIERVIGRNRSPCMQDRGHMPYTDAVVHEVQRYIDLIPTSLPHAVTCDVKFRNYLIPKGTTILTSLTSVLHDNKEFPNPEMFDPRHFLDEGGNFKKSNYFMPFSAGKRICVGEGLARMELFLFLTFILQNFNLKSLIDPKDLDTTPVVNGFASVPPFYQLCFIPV
Cytochrome P450 2D6, sequence (P10635 whole entry): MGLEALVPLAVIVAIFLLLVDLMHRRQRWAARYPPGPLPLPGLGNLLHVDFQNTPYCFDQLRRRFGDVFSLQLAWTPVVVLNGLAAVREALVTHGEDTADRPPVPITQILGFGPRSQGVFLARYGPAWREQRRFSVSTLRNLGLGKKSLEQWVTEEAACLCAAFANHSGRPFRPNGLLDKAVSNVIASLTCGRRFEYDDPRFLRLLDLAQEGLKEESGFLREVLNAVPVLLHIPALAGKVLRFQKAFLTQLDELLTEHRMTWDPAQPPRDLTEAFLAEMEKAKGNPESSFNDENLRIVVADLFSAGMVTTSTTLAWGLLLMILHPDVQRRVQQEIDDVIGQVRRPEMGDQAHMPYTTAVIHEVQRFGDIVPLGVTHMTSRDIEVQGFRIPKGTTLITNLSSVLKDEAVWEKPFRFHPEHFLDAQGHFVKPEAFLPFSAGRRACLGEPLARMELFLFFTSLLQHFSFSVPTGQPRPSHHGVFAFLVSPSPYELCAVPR
Cytochrome P450 3A4, sequence (P08684 whole entry): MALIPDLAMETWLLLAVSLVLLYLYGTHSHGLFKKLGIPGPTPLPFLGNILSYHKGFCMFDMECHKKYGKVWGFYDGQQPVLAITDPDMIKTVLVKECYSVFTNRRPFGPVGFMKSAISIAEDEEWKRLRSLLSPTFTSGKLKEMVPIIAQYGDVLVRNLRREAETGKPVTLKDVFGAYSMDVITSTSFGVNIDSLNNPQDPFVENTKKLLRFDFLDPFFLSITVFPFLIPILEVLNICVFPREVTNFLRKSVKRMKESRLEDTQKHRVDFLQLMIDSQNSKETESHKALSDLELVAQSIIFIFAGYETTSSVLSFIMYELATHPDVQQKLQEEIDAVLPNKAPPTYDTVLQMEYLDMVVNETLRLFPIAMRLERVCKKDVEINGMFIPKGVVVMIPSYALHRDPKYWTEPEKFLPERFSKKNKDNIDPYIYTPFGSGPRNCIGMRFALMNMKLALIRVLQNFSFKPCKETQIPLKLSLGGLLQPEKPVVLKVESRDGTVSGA

Compound: COc1ccccc1/C=C/C(=O)c1ccc(Cl)cc1
EC50 [6]: 23.5 µM (active)
EC50 [7]: 21.8 µM (active)
EC50 [1]: 25.5 µM (inactive)
AC50 [8]: 15.8 µM (inconclusive)
AC50 [9]: 28.2 µM (inconclusive)
AC50 [10]: 22.4 µM (inconclusive)

Compound: Cc1noc(C)c1CSc1nc2nncc-2c(O)n1-c1ccccc1
IC50 [11]: > 80 µM (inactive)

Compound: CC(=O)c1c(C)[nH]c(C(=O)OCc2cccc(Cl)c2)c1C
IC50 [12]: 7.75 µM (not active)
AC50 [13]: 20 µM (active)

Compound: COc1ccc(NS(=O)(=O)c2cc(NC(=O)c3cc(=O)c4ccccc4o3)ccc2OC)cc1
IC50 [11]: > 80 µM (inactive)

Compound: CC(=C\c1ccccc1)/C=C1/SC(=O)N(CCCC(=O)Nc2ccc(C(=O)O)cc2)C1=O
IC50 [11]: > 80 µM (inactive)

Compound: CCN(CC(=O)Nc1c(F)cccc1F)C(=O)c1cc([N+](=O)[O-])ccc1N1CCCCC1
IC50 [11]: > 80 µM (inactive)

Compound: COc1ccc(NC(=O)Nc2cccc3c2O[C@H](CN(C)S(=O)(=O)c2ccc(F)cc2)[C@@H](C)CN([C@H](C)CO)C3=O)cc1
AC50 [14]: 20 µM (inactive)

Compound: C[C@@H]1CCCCO[C@H](CN(C)CC2CCCCC2)[C@@H](C)CN([C@H](C)CO)C(=O)c2cc(NC(=O)Nc3ccc4c(c3)OCO4)ccc2O1
AC50 [14]: 1.96 µM (active)

Compound: Cc1ccc(S(=O)(=O)N(C)C[C@H]2OCCCC[C@@H](C)Oc3ccc(NS(=O)(=O)c4ccc(Cl)cc4)cc3C(=O)N([C@H](C)CO)C[C@@H]2C)cc1
AC50 [14]: 3.91 µM (active)

Compound: C[C@@H]1CN([C@H](C)CO)C(=O)Cc2cc(NC(=O)Cc3ccccc3)ccc2O[C@H]1CN(C)Cc1ccc(C(F)(F)F)cc1
AC50 [14]: 5.77 µM (active)

Compound: C[C@@H]1CN([C@@H](C)CO)C(=O)c2cccc(NC(=O)Nc3ccc(C(F)(F)F)cc3)c2O[C@H]1CN(C)Cc1ccc2c(c1)OCO2
AC50 [14]: 1.34 µM (active)

Compound: C[C@@H]1CN([C@H](C)CO)C(=O)Cc2cc(NS(=O)(=O)c3ccc(Cl)cc3)ccc2O[C@H]1CN(C)Cc1ccc(Oc2ccccc2)cc1
AC50 [14]: 4.56 µM (active)

Compound: CN(C)c1cc[n+](Cc2c(Cl)cccc2Cl)cc1
IC50 [11]: > 80 µM (inactive)
AC50 [13]: 3.85 µM (active)

The next lines start with the values.

EC50 [1]: 3.56 µM (active)
Compound: CCc1noc(C)c1C(=O)Nc1nc(-c2ccc(Cl)cc2Cl)cs1

EC50 [1]: 1.74 µM (active)
Compound: O=C(N[C@H]1CCC(=O)N([C@H](CSc2ccccc2)Cc2ccccc2)CC1)OCc1ccccc1

AC50 [2]: > 20 µM (inactive)
Compound: CCN(CC)CCCNc1nc(-n2nc(C)cc2C)nc2sc3c(c12)CC(C)(C)OC3

AC50 ([3]; read-out: AC50): 28.2 µM (inconclusive)
AC50 [4]: 39.8 µM (inconclusive)
AC50 [5]: inconclusive
Compound: CCOC(=O)c1c(C)c(C(=O)N2CCN(C(=O)c3ccco3)CC2)c(C)n1C

AC50 [3]: inconclusive
AC50 [5]: inconclusive
Compound: C[C@@]1(O)CCOC(=O)C1

AC50 [2]: > 20 µM (inactive)
Compound: O=C(/C=C/c1ccco1)Nc1scc(-c2ccccc2)c1C(=O)O

AC50 ([3]; read-out: AC50): 20 µM (inconclusive)
AC50 [5]: inconclusive
Compound: CN(C)c1ccc(-c2nc(N(C)Cc3ccco3)c3ccccc3n2)cc1

AC50 [5]: inconclusive
Compound: COc1ccccc1CNC(=O)CCCn1c(=O)c2ccccc2n(CC(=O)NC2CCCC2)c1=O

AC50 [4]: 20 µM (inconclusive)
AC50 [5]: inconclusive
Compound: COCCNc1ccnc(-c2ccccc2C(F)(F)F)n1

AC50 [2]: 6.95 µM (active)
Compound: CC(=O)Nc1ccc(Sc2ccccc2C(=O)O)cn1

AC50 [2]: > 20 µM (inactive)
Compound: CCN(CC)CCCNc1nc(CN2CCOCC2)nc2sc3c(c12)CCC3

AC50 [8]: 39.8 µM (inconclusive)
AC50 [5]: inconclusive
Compound: O=S(=O)(NCc1cc(-c2ccccc2Cl)no1)c1ccccc1

AC50 [5]: inconclusive
Compound: Nc1ccccc1S(N)(=O)=O

AC50 [5]: inconclusive
Compound: COC(=O)Nc1nc2ccc(C(=O)c3ccccc3)cc2[nH]1 [MEBENDAZOLE]
